From paper PMC3914206

Assays:
[1] = biological target: T1, panel of 442 kinases (Homo sapiens, UniProt P48729); format: binding; details: Compound Concentration 10 µM
T1 construct: purchased KINOMEscan
Description: (§1) We assessed the selectivity of members of this scaffold using the KINOMEscan methodology across a near comprehensive panel of 442 kinases [[18,27]].

[2] = biological target: T2, panel of 442 kinases (Homo sapiens, UniProt O94768); format: binding; details: Compound Concentration 10 µM
T2 construct: purchased KINOMEscan
T2 sequence (O94768 1-372): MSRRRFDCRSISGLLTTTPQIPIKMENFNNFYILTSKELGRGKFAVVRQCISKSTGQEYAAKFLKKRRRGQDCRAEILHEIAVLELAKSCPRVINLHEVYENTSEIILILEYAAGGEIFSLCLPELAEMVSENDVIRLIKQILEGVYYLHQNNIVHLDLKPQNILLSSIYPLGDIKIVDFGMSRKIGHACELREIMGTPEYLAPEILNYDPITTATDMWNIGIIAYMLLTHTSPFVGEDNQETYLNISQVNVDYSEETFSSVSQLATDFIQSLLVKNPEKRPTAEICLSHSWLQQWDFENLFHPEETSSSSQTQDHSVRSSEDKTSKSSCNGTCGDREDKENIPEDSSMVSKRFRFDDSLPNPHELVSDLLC
Description: as §1

T1 sequence (P48729 whole entry): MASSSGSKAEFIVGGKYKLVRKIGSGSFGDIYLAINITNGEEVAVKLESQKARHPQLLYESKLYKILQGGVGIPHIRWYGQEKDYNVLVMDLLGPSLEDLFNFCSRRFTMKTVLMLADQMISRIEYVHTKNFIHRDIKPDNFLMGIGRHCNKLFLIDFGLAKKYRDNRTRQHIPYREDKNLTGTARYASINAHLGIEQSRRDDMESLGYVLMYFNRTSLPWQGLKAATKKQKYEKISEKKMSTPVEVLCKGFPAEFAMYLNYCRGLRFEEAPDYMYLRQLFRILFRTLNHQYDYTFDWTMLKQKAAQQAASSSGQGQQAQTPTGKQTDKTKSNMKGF

Row | SMILES | KINOMEscan: CSNK1A1 [1] | KINOMEscan: DRAK2 [2]
1 | CCOc1cc(C(=O)N2CCC(N3CCN(C)CC3)CC2)ccc1Nc1ncc2c(n1)N(C1CCCC1)c1ccccc1C(=O)N2C [Compound 26] | 100 | 100
2 | COc1cc(C(=O)N2CCC(N3CCN(C)CC3)CC2)ccc1Nc1ncc2c(n1)N(C)c1ccccc1C(=O)N2C [15 (LRRK2-IN-1)] | 100 | 93
3 | COc1cc(C(=O)N2CCC(N3CCN(C)CC3)CC2)ccc1Nc1ncc2c(n1)N(C1CCCC1)c1ccccc1C(=O)N2C [Compound 25, 11-cyclopentyl-2-((2-methoxy-4-(4-(4-methylpiperazin-1-yl)piperidine-1-carbonyl)phenyl)amino)-5-methyl-5H-benzo[e]pyrimido[5,4-b][1,4]diazepin-6(11H)-one] | 100 | 100
